Results published in patent publication US10688143B2, “Composition containing extract or fraction of genus Justicia plant” (priority 2014, dated 2020).
Like-named read-outs stand apart in the source and are kept apart here.

Experiments:
U266B1 cells = assay: Inhibition of IgE antibody secretion in U266B1 cells (IgE ELISA); type: cell-based
Experimental: The U266B1 cells used were purchased from the American Tissue Cell Culture (ATCC # TIB-196). Specifically, U266B1 cells were diluted in RPMI medium containing 15% fetal bovine serum (FBS) and antibiotics (100 U/mL of penicillin and 100 μg/mL of streptomycin) at a concentration of 2×10^5 cells/mL, and then the dilution was dispensed in a 24-well plate at a concentration of 400 μl/well and in a 96-well plate at a concentration of 100 μl/well, and incubated in a 5% CO2 incubator at 37° C. for 72 hours.
The U266B1 cells were treated with 5 mg/mL of each of the Justicia procumbens L. extracts and fractions (prepared in Preparation Examples 1 and 2 and shown in Tables 1 to 5). The medium in the 24-well plate was used to measure IgE antibody secretion, and the 96-well plate was used to measure cytotoxicity.
For measurement of IgE antibody secretion, the medium in the 24-well plate was collected and centrifuged at 125×g for 5 minutes to remove debris. 100 g of the medium was diluted 10-fold, and then the degree of IgE secretion was measured using IgE enzyme-linked immonosorbent assay (ELISA, Komabiotech Inc).

MC/9 mouse mast cells = assay: Degranulation inhibition (β-hexosaminidase secretion) in MC/9 mast cells induced with PMA/A23187; type: cell-based
Experimental: (§1) MC/9 mouse mast cells were purchased from the American Tissue Cell Culture (ATCC # CRL-8306), and RBL-2H3 rat basophilic cells were purchased from the Korean Cell Link Bank (KCLB #22256). MC/9 mast cells and RBL-2H3 basophils were diluted at concentrations of 2×10^6 cells/mL and 5×10^5 cells/mL, respectively, and 400 μl of each of the dilutions was dispensed into each well of 24-well plates. Each well was pretreated with 10 μg/mL or 20 μg/mL of each of the extracts and fractions (prepared in Preparation Examples 1 and 2 and shown in Tables 1 to 5 above) for 30 minutes, and then degranulation of the cells was induced with 200 nM PMA/10 mM A23187 for 1 hour. […] The absorbance at 405 nm was measured, and β-hexosaminidase secretion (%) was calculated using the following equation 2: β-hexosaminidase secretion (%)={absorbance of medium/(absorbance of cell lysate+absorbance of medium)}×100 Equation 2
(§2) Based on β-hexosaminidase secretion (%) obtained using equation 2 above, the degranulation inhibitory ability of each of the Justicia procumbens L. extracts was calculated using the following equation 3 (β-heXo: β-hexosaminidase): Degranulation inhibitory ability (%)={(β-hexo secretion % of test group−β-hexo secretion % of normal group)/(β-hexo secretion % of control group−β-hexo secretion % of normal group)}×100 Equation 3

[1] = test system: RBL-2H3 rat basophilic cells; assay: Degranulation inhibition (β-hexosaminidase secretion) in RBL-2H3 basophils induced with PMA/A23187; type: cell-based
Experimental: as §1, §2

[2] = test system: Balb/c mouse rhinitis models; assay: Inhibition of IgE secretion in Balb/c mouse rhinitis models (ovalbumin); type: in vivo; details: extract 200 mg/kg oral daily for 1 week, dexamethasone 3 mg/kg intraperitoneal
Experimental: Specifically, 5-week-old Balb/c mice were purchased and acclimated for 1 week. On 0, 7 and 14 days of one week of acclimation, the mice were systematically sensitized by intraperitoneally injecting 0.1% ovalbumin (OVA: 1 mg/mL, Al(OH)3: 20 mg/ml) in an amount of 100 μl/mouse. […] As a positive control, 3 mg/kg of dexamethasone was intraperitoneally administered. After 1 hour, 0.4% ovalbumin solution was dropped into the nasal cavity. In the afternoon, 0.4% ovalbumin solution was dropped once more into the nasal cavity. […] The inhibition (%) of IgE secretion was calculated using the following equation 4: Inhibition (%) of secretion=100−{(concentration in test group−concentration in normal group)/(concentration in ovalbumin-induced group−concentration in normal group)}×100 Equation 4

[3] = test system: Balb/c mouse asthma models; assay: Inhibition of asthma in Balb/c mouse asthma models (ovalbumin): serum IgE, BALF IL-4, IL-5, inflammatory cells; type: in vivo; details: extracts 200 mg/kg oral daily for 10 days, dexamethasone 3 mg/kg intraperitoneal
Experimental: 5-week-old Balb/c mice were purchased and acclimated for 1 week. On 0 and 14 days of 1 week of acclimation, the mice were systematically sensitized by intraperitoneally administering 0.1% ovalbumin (OVA: 1 mg/mL, Al(OH)3: 20 mg/mL) in an amount of 100 μl/mouse. […] As a positive control, 3 mg/kg of dexamethasone was administered intraperitoneally. After one hour, 0.2% ovalbumin solution was sprayed and inhaled into the mice for 1 hour by use of a nebulizer (PARI Boy SX, Germany GmbH). 5 hours after final sensitization (30 days), the mice were biopsied, and whole blood was sampled from the mice and centrifuged at 12000 rpm for 10 minutes to separate serum. In addition, the lung tissue was isolated from each mouse and flushed with 1 mL of phosphate buffered saline through tracheostomy to collect bronchoalveolar lavage fluid (BALF). The collected bronchoalveolar lavage fluid was centrifuged at 3000 rpm for 10 minutes, and the supernatant was used to measure physiologically active substances (IL-4, and IL-5), and the pellets were used to measure the number of inflammatory cells.
The IgE concentration in the separated serum was measured using IgE enzyme-linked immonosorbent assay (ELISA, Komabiotech Inc.), and the physiologically active substances (interleukin-4 (IL-4) and interleukin-5 (IL-5)) in the isolated bronchoalveolar lavage fluid were measured using an enzyme-linked immonosorbent assay (ELISA, IL-4: Enzo # ADI-900-043, IL-5: R&D system # M5000) corresponding to each substance. The results of the measurement are shown in Table 14 below, and the ability of each extract to inhibit IgE secretion was calculated in the same manner as equation 4 shown in Example 3.
In addition, the bronchoalveolar lavage fluid pellets were re-dissolved in 0.5 mL of phosphate buffered saline, and 0.1 mL of the solution was added to each well of a 96-well plate and centrifuged at 800 rpm for 5 minutes to attach the cells to the bottom (3 wells per sample). Then, each sample was stained with Diff Quik staining solution (Sysmex), and photographed with a microscope at 2-6 random sites. About 200 cells per sample were counted to calculate the percentage (%) of inflammatory cells of each group. The total number of inflammatory cells was measured with a microscope using a hematocytometer, and the number of basophils was calculated using the percentage (%) of each inflammatory cells, and is shown in FIG. 1. Statistical processing was performed using an SPSS program, and a Levene test was performed for a test for equal variance, and significance was tested by one-way analysis (ANOVA).

## C[C@@H]1C[C@H]2[C@@H]3CCC4=CC(=O)C=C[C@]4(C)[C@@]3(F)[C@@H](O)C[C@]2(C)[C@@]1(O)C(=O)CO [Dexamethasone]
U266B1 cells; U266B1, 5 μg/mL, organic solvent extracts and fractions, Table 8, read-out: IgE secretion inhibition (%) (n = 3, Mean ± SE)
  inhibition at 5 µg/mL: 4 ± 3.4%
U266B1 cells; U266B1, concentration of test group 5 μg/mL, Table 6, read-out: IgE secretion inhibition (%) (n = 4, Mean ± SE)
  inhibition at 5 µg/mL: 8 ± 15%
MC/9 mouse mast cells; MC/9, 10 μg/mL, Table 11
  Degranulation inhibition (%) (n = 3, Mean ± SE): 35 ± 0.2%
MC/9 mouse mast cells; MC/9, 20 μg/mL, Table 9
  Inhibition (%) of degranulation (n = 3, Mean ± SE): 64 ± 0.2%
[1]; RBL-2H3, 10 μg/mL, Table 11, read-out: Degranulation inhibition (%) (n = 3, Mean ± SE)
  inhibition at 10 µg/mL: 14 ± 3%
[1]; RBL-2H3, 20 μg/mL, Table 9, read-out: Inhibition (%) of degranulation (n = 3, Mean ± SE)
  inhibition at 20 µg/mL: 18 ± 1%
[2]
  Serum IgE concentration (ng/mL, Mean ± SE): 32.2 ± 4.4 ng/mL
[2]; equation 4
  Inhibition of IgE secretion (%, Mean ± SE): 67.3 ± 6.3%
[3]
  Bronchoalveolar lavage fluid IL-4 (inhibition of IgE secretion, (%)), Mean ± SD: (72.7 ± 3.8) %
  Bronchoalveolar lavage fluid IL-4 (pg/mL), Mean ± SD: 56.0 ± 2.1 # pg/mL
  Bronchoalveolar lavage fluid IL-5 (inhibition of IgE secretion, (%)), Mean ± SD: (98.7 ± 9.2) %
  Bronchoalveolar lavage fluid IL-5 (pg/mL), Mean ± SD: 4.8 ± 3.2 # pg/mL
  Serum IgE concentration (ng/mL), Mean ± SD: 85.8 ± 4.9 # ng/mL
[3]; equation 4
  Serum IgE (inhibition of IgE secretion, (%)), Mean ± SD: (25.0 ± 5.8) %
